Results as given in US20170189496A1, “USE OF PHOSPHORYLATION PATHWAY-RELATED FACTOR IN REGULATING FUNCTION OF REGULATORY T CELL” (Institut Pasteur of Shanghai, Chinese Academy of Sciences, priority 2012, published 2017).

Tests used:
nTreg cells = experiment: nTreg expansion, FACS detection of FOXP3 and CTLA4; assay type: cell-based, human; settings: 100 nM; IL-2 500 U/ml, CD3/CD28 dynabeads 3:1; two weeks; vs control group
Method: 500 U/ml of IL-2 was added to 2×10^5 nTreg cells. nTreg cells were expanded using CD3/CD28 T cell dynabeads and cells at 3:1 ratio. After two weeks, part of expanded nTreg cells were collected for FACS detection. Dynabeads were removed from the remaining cells. After 48 h of rest, FOXP3 and CTLA4 cells were collected again by flow cytometry. The working concentrations of Rapamycin and PIM1 inhibitors are both 100 nM.
500 U/ml of IL-2 was added to 2×10^5 nTreg cells. nTreg cells were expanded at a 3:1 ratio of CD3/CD28 T cell dynabeads and cells. After two weeks, part of the expanded nTreg cells were collected for FACS detection. Dynabeads were removed from the remaining cells and rested for 48 h. Cells were collected again for FACS detection of FOXP3 and CTLA4.

[1] = system: Jurkat cells stably expressing HA-FOXP3; experiment: FOXP3 protein degradation induced by PMA/LPS in Jurkat cells stably expressing HA-FOXP3 (immunoblot); assay type: cell-based; settings: PMA 25 ng/ml + LPS 1 ng/ml, 24 h; kaempferol 50 μM, PIM1 inhibitor 100 nM, PI3K inhibitor 10 μg/ml; DMSO control
Method: HA-FOXP3-Jurkat stable expression cells were treated with PMA (25 ng/ml) and LPS (1 ng/ml). 50 μM kaempferol, 100 nM PIM1 inhibitors (specifically of 4-[3-(4-chlorophenyl)-2,1-benzisoxazol-5-yl]-2-pyrimidinamine), and 10 μg/ml PI3K inhibitor (LY294002) were added, and DMSO as a control. Cells were collected 24 h later. The levels of FOXP3 and GAPDH were detected directly by immunoblot.
Human embryonic kidney cell line HEK293 was co-transfected with FUGW-HA-FOXP3, del 8.9 and VSV-G. Cell culture supernatants were collected 48 h and 72 h after transfection. Viruses were purified by ultracentrifugation and used to infect Jurkat E6.1 to ultimately obtain Jurkat cell lines stably expressing HA-FOXP3.
Protein samples were subjected to SDS-PAGE, and then transferred to nitrocellulose membrane, which was then sealed in TBST containing 5% nonfat dry milk or 3% bovine serum albumin for 1 h. Primary antibody was added and incubated for 1 h and then HRP-conjugated secondary antibody was added and incubated for 1 h, and results shown by exposure with ECL substrates.
Jurkat cells stably expressing HA-FOXP3 were treated with PMA (25 ng/ml) and LPS (1 ng/ml). Each sample was added 50 μM kaempferol, 100 nM PIM1 inhibitor (i.e., 4-[3-(4-chlorophenyl)-2,1-benzisoxazol-5-yl]-2-pyrimidinamine), and 10 μg/ml PI3K inhibitor (LY294002). DMSO serves as a control. Cells were collected after 24 h.

[2] = system: nTreg mixed with CFSE-labeled human PBMC; experiment: nTreg immunosuppressive activity: proliferation of CFSE-labeled PBMC; assay type: cell-based; settings: Treg:PBMC 1:2 or 1:4; Bead-CD3/CD28; 5 days; vs DMSO-treated group
Method: The expanded nTreg were mixed with human CFSE-labeled PBMC (2×10^5 cells/well) in U-shaped wells of 96-well plate at corresponding proportion. 5000 T cell dynabeads conjugated with CD3/CD28 antibody were added. Cell proliferation levels were detected after two groups of cells treated with DMSO and PIM1 inhibitors, respectively, were incubated for five days.
Regulatory T cells were obtained from human peripheral blood mononuclear cells (purchased from Shanghai Blood Center) by antibody labeling and magnetic bead sorting. As mentioned above, after labeling effector T cells with 1 μM CFSE (Invitrogen), regulatory T cells and effector T cells were cultured for 80 h. Flow cytometry was used to detect fluorescence intensity changes in effector T cells, their proliferation status was analyzed.
The expanded nTreg were mixed with CFSE-labeled human PBMC (2×10^5 cells/well) at the corresponding ratio (i.e., PBMC only, Treg:PBMC=1:2 or 1:4, or Treg only) in 96-well U-shaped well. 5000 Bead-CD3/CD28 were added to each well. Two groups of cells were treated, respectively, with DMSO and PIM1 inhibitors, cultured for 5 days, followed by detection of cell proliferation levels (results shown in FIG. 6).

[3] = system: human CD4+ CD25+ CD127low natural Treg (nTreg); experiment: Flow cytometry of expanded nTreg treated with PIM1 inhibitor; assay type: cell-based; settings: 100 nM
Method: After removal of Beads, DMSO or PIM1 inhibitor (100 nM) was added and treated for 24 h, followed by APC-FOXP3 and PE-CD25 antibody staining for flow cytometry analysis.
After human CD4+ CD25+ CD127^low natural Treg (nTreg) were sorted by BD FACS Aria II flow sorter, and expanded through Bead-CD3/CD28 and IL-2 (500 U/ml). DMSO or PIM1 inhibitor (4-[3-(4-chlorophenyl)-2,1-benzisoxazol-5-yl]-2-pyrimidinamine, 100 nM) was added and treated for 24 h. and the cells were stained with APC-FOXP3 and PE-CD25 antibody for flow cytometry analysis (results shown in FIG. 5A). The expanded nTreg were rested for 24 h. DMSO or PIM1 inhibitor (100 nM) was then added and treated for 48 h, followed by staining with APC-FOXP3 and PE-CD25 antibody for flow cytometry analysis (results shown in FIG. 5B).

[4] = system: in vitro expanded natural regulatory T cells (nTreg); experiment: PIM1 protein expression in in vitro expanded nTreg under inflammatory cytokine stimulation; assay type: cell-based
[5] = system: SZ4.03 lymphocyte cell line that highly expresses FOXP3; experiment: Inflammatory cytokine induction of PIM1 expression in SZ4.03 cells (immunoblot); assay type: cell-based; settings: IL-6 20 ng/ml or IL-4 30 ng/ml; for PIM1 expression: 0 h, 1 h, 2 h, 4 h; for FOXP3 expression levels: 0-4 h
Method: SZ4.03 cells were treated with IL-6 (20 ng/ml) or IL-4 (30 ng/ml), respectively. After 0 h, 1 h, 2 h, and 4 h, cells were collected and lysed by boiling directly in SDS-Loading Buffer. Samples were then analyzed by immunoblot.
SZ4.03 cells (lymphocyte cell line that highly expresses FOXP3, kept in the present laboratory; also can be routinely obtained by one skilled in the art according to methods described in Reference 7) were cultured in 1640 culture medium containing 10% FBS, 100 units/ml penicillin-streptomycin, 100 units ml non-essential amino acids, and 100 units/ml sodium pyruvate, at 37° C. under 5% CO2.
After protein samples were subjected to SDS-PAGE, transferred to nitrocellulose membrane, sealed in TBST with 5% skim milk for 1 h, primary antibody was added and incubated for 1 h, then HRP-conjugated secondary antibody was added and incubated for 1 h, and results shown by exposure with ECL substrates.
SZ4.03 cells were treated with IL-6 (20 ng/ml) or IL-4 (30 ng/ml), respectively, for 0 h, 1 h, 2 h, and 4 h. Cells were collected and lysed by boiling directly in SDS sample buffer, and then samples were analyzed by immunoblot (primary antibodies are PIM1 antibody and FOXP3 antibody) (results shown in FIG. 2).

PIM1 [6] = target: T1, PIM1 (Homo sapiens, UniProt P11309); experiment: shPIM1 knockdown in SZ4.03 cells, mRNA of FOXP3 target genes by quantitative PCR; assay type: cell-based; design: SZ4.03 cells that highly expresses FOXP3 were infected with viral vectors carrying the negative control shRNA (shCK) and PIM1 shRNA (shPIM1); endogenous in cells; host or cells: SZ4.03 lymphocyte cell line; settings: vs control shCK
Method: After 4 h, total RNA was extracted and converted to cDNA. PIM1 mRNA expression levels were then analyzed by quantitative PCR.
(§1) shPIM1 primer sequences were designed as follows:
After annealing, the synthesized shRNA primer sequences were ligated into lentiviral shRNA expression vector pLKO.1 (purchased from Addgene). After mixed at a ratio of pLKO.1:dR8.9:VSVG=5:4:3, HEK 293T cells were transfected with the mixture using calcium phosphate method. Viruses were collected 48 h after transfection. After low-speed centrifugation and filtration, virus suspension was used directly to infect target cells.
SZ4.03 cells that highly expresses FOXP3 were infected with viral vectors carrying the negative control shRNA (shCK) and PIM1 shRNA (shPIM1) packaged using lentiviral packaging system, followed by puromycin (50 ng/ml) selection and DMSO or PMA/inomycin (P/I) for 4 h. Total RNA was extracted and reverse transcribed to cDNA.

PIM1 [7] = target: T1, PIM1; experiment: PIM shRNA lentivirus in primary nTreg, mRNA by quantitative PCR; assay type: cell-based; design: SZ4.03 cells that highly expresses FOXP3 were infected with viral vectors carrying the negative control shRNA (shCK) and PIM1 shRNA (shPIM1); endogenous in cells; settings: primary nTreg cells; 1 week culture after lentivirus infection
Method: Primary nTreg cells were activated with 500 U/ml of IL-2 and CD3/CD28 T cell dynabeads and cells at 3:1 ratio for 4 h, and, respectively, infected with lentivirus encoding PIM1, PIM2, and PIM3 shRNA overnight. Continued incubation for one week, the mRNA levels of FOXP3 and its target gene CTLA4 were detected by quantitative PCR.
500 U/ml of IL-2 was added to 2×10^5 nTreg cells. Primary nTreg cells were activated at a 3:1 ratio of CD3/CD28 T cell dynabeads and cells for 4 h, followed by infection of lentiviruses encoding PIM1, PIM2, and PIM3 shRNA overnight. Cells were cultured for 1 week without removing dynabeads, and then the mRNAs level of FOXP3 and its target gene CTLA4 were detected (results shown in FIG. 12).
as §1
After annealing, the synthesized shRNA primer sequences were ligated into shRNA lentiviral expression vector pLKO.1 (purchased from Addgene). After mixed at a ratio of pLKO.1:dR8.9:VSVG=5:4:3, they were transfected into HEK 293T cells by calcium phosphate method. Viruses were collected 48 h after transfection. Virus suspensions, after low-speed centrifugation and filtration, were used directly to infect target cells.

[8] = 24 h or 48 h, vs DMSO control group

T1 sequence (P11309 whole entry): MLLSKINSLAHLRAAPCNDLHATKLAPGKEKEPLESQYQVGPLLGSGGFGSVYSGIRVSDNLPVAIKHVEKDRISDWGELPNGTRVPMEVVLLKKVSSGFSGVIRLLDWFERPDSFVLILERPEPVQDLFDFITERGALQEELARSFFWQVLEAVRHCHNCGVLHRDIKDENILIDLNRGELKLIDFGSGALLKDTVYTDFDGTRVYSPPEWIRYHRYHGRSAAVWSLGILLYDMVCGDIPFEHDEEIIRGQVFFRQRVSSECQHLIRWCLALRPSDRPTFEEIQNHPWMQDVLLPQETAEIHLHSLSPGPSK

Nc1nccc(-c2ccc3noc(-c4ccc(Cl)cc4)c3c2)n1 [PIM1 inhibitor, 4-[3-(4-chlorophenyl)-2,1-benzisoxazol-5-yl]-2-pyrimidinamine]
FOXP3+ and CTLA4+ nTreg cell expansion (nTreg cells): promote
FOXP3 protein degradation [1]: can inhibit
PBMC proliferation [2]: inhibited more
FOXP3 expression levels [3]: positively regulate
CD25+ FOXP3+ Treg cell levels [3, 8]: significantly increase
CLTA4+ FOXP3+ Treg cell levels [3, 8]: significantly increase

IL-6: inflammatory cytokine, purchased from Apotech
PIM1 protein expression levels [4]: rapidly up-regulate
PIM1 expression [5]: gradually increases as treatment time increases
FOXP3 expression levels [5]: no significant difference

B1: shPIM1: PIM1 shRNA (SEQ ID NO: 3 and 4) in lentiviral vector pLKO.1 (nucleic acid)
sense: CCGGGATACTCTCTTCTTCTCATAGCTCGAGCTATGAGAAGAAGAGAGTATCTTTTT
antisense: AATTAAAAAGATACTCTCTTCTTCTCATAGCTCGAGCTATGAGAAGAAGAGAGTATC
mRNA expression levels of FOXP3-negatively regulated target gene IL-2 (PIM1 [6]): reduces
mRNA expression levels of FOXP3-positively regulated target gene CTLA4 (PIM1 [6]): enhances
mRNA expression levels of FOXP3-positively regulated target gene GITR (PIM1 [6]): enhances
mRNA expression levels of non-FOXP3 target gene STUB1 (PIM1 [6]): does not affect
mRNA expression levels of PIM1 (PIM1 [6]; DMSO or PMA/inomycin 4 h): significantly reduce
mRNA levels of CTLA4 (PIM1 [7]): increase

B2: IL-4: inflammatory cytokine, purchased from Apotech (protein, UniProt P05112 25-153, looked up)
Interleukin-4: HKCDITLQEIIKTLNSLTEQKTLCTELTVTDIFAASKNTTEKETFCRAATVLRQFYSHHEKDTRCLGATAQQFHRHKQLIRFLKRLDRNLWGLAGLNSCPVKEANQSTLENFLERLKTIMREKYSKCSS
PIM1 protein expression levels [4]: rapidly up-regulate
PIM1 expression [5]: gradually increases as treatment time increases
FOXP3 expression levels [5]: no significant difference
